The term IC50 denotes the point on the concentration scale where inhibition reaches its midpoint.

From patent US20260022142A1, “MACROCYCLIC IMMUNOMODULATORS” (Bristol-Myers Squibb Company, priority 2022, published 2026) come the findings set out here.

The structures appear in SMILES notation. Numbered stars: 1 amine (or outer) side, 2 acyl side, 3 side chain; on linkers, the order of the positions; unused ones are H or OH. Bridge positions count the residues as written; N and C are the ends. Square brackets hold non-standard residues; d marks the D form. Peptide text beside a SMILES is read from it. * marks the point of attachment. Bip = N[C@@H](Cc1ccc(-c2ccccc2)cc1)C(=O)O; Phe(3-Me) = Cc1cccc(C[C@H](N)C(=O)O)c1; γGlu = O=C(O)[C@H](CCC(=O)[*:2])N[*:1]; βAsp = O=C(O)[C@H](CC(=O)[*:2])N[*:1]; Cha = N[C@@H](CC1CCCCC1)C(=O)O; Cit = NC(=O)NCCC[C@H](N)C(=O)O; Carboxymethyl = O=C(O)C*; Orn = NCCC[C@H](N)C(=O)O; Aun = NCCCCCCCCCCC(=O)O; Dab = NCC[C@H](N)C(=O)O; Dap = NC[C@H](N)C(=O)O; AEEA = NCCOCCOCC(=O)O

T1 sequence (Q15116 25-288): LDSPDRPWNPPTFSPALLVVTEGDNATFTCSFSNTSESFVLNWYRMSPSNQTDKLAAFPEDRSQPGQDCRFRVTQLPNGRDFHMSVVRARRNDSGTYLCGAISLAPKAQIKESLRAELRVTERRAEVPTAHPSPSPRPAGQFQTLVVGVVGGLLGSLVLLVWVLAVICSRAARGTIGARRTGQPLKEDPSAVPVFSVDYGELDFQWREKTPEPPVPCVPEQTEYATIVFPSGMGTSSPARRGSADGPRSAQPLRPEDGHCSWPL

This experiment concerns the target T1, PD-1/PD-L1 interaction (PE-labeled human PD-L1-Ig binding to Jurkat cell line over-expressing human PD-1) (Homo sapiens, UniProt Q15116).
T1 construct: expressed in transfected cells; host or cells: Jurkat
Briefly: Jurkat-PD-1 Cell Binding High-Content Screening Assay (CBA). Format: cell-based. The settings on record: Jurkat cell line over-expressing human PD-1; PE-labeled PD-L1-Ig 20 nM final; read-out: Jurkat hPD1-PDL1 IC50. How it is done:
Example 2: Jurkat-PD-1 Cell Binding High-Content Screening Assay (CBA)
Phycoerythrin (PE) was covalently linked to the Ig epitope tag of human PD-L1-Ig and fluorescently-labeled PD-L1-Ig was used for binding studies with a Jurkat cell line over-expressing human PD-1 (Jurkat-PD-1). Briefly, 8×10^3 Jurkat-hPD-1 cells were seeded into 384 well plates in 20 μl of DMEM supplemented with 10% fetal calf serum. 100 nl of compound was added to cells followed by incubation at 37° C. for 2 h. Then, 5 μl of PE-labeled PD-L1-Ig (20 nM final), diluted in DMEM supplemented with 10% fetal calf serum. After 1 hour incubation, cells were fixed with 4% paraformaldehyde in dPBS containing 10 μg/ml Hoechst 33342 and then washed 3× in 100 μl dPBS. Data was collected and processed using a Cell Insight NXT High Content Imager and associated software.
As for `Cc1cccc(C[C@@H]2NC(=O)[C@H](CC(=O)O)NC(=O)[C@H](Cc3ccc(OCC(=O)O)cc3)NC(=O)[C@H](CN)NC(=O)CSC[C@@H](C(=O)N[C@@H](C)C(=O)N[C@@H](CC(=O)O)C(=O)NCCOCCOCC(=O)N[C@@H](CCC(=O)NCCOCCOCC(=O)NCCCCCCCCCCC(=O)O)C(=O)O)NC(=O)[C@H]([C@@H](C)O)NC(=O)[C@H](C(C)C)NC(=O)[C@H](CC3CCCCC3)NC(=O)[C@H](CCN)NC(=O)[C@@H](CC(C)C)NC(=O)[C@H](CCCN)NC(=O)[C@H](CCCNC(N)=O)NC(=O)[C@H](Cc3ccc(-c4ccccc4)cc3)NC(=O)[C@H](C(C)C)NC2=O)c1` [Compound 1014] ({CH2CO}-[Dap]Y(Carboxymethyl)D[Phe(3-Me)]V[Bip][Cit][Orn][dL][Dab][Cha]VTCAD[AEEA][γGlu][AEEA][Aun]-OH; thioether N-14), the IC50 came out at 5.5 nM.
In the case of `Cc1cccc(C[C@@H]2NC(=O)[C@H](CC(=O)O)NC(=O)[C@H](Cc3ccc(OCC(=O)O)cc3)NC(=O)[C@H](CN)NC(=O)CSC[C@@H](C(=O)N[C@@H](C)C(=O)N[C@@H](CCC(=O)O)C(=O)NCCOCCOCC(=O)N[C@@H](CCC(=O)NCCOCCOCC(=O)NCCCCCCCCCCC(=O)O)C(=O)O)NC(=O)[C@H]([C@@H](C)O)NC(=O)[C@H](C(C)C)NC(=O)[C@H](CC3CCCCC3)NC(=O)[C@H](CCN)NC(=O)[C@@H](CC(C)C)NC(=O)[C@H](CCCN)NC(=O)[C@H](CCCNC(N)=O)NC(=O)[C@H](Cc3ccc(-c4ccccc4)cc3)NC(=O)[C@H](C(C)C)NC2=O)c1` [Compound 1015] ({CH2CO}-[Dap]Y(Carboxymethyl)D[Phe(3-Me)]V[Bip][Cit][Orn][dL][Dab][Cha]VTCAE[AEEA][γGlu][AEEA][Aun]-OH; thioether N-14), the 50% inhibitory concentration (IC50) is 7.9 nM.
The figure for `Cc1cccc(C[C@@H]2NC(=O)[C@H](CC(=O)O)NC(=O)[C@H](Cc3ccc(OCC(=O)O)cc3)NC(=O)[C@H](CN)NC(=O)CSC[C@@H](C(=O)N[C@@H](C)C(=O)N[C@@H](CC(=O)O)C(=O)NCCOCCOCC(=O)N[C@@H](CCC(=O)O)C(=O)NCCOCCOCC(=O)NCCCCCCCCCCC(=O)O)NC(=O)[C@H]([C@@H](C)O)NC(=O)[C@H](C(C)C)NC(=O)[C@H](CC3CCCCC3)NC(=O)[C@H](CCN)NC(=O)[C@@H](CC(C)C)NC(=O)[C@H](CCCN)NC(=O)[C@H](CCCNC(N)=O)NC(=O)[C@H](Cc3ccc(-c4ccccc4)cc3)NC(=O)[C@H](C(C)C)NC2=O)c1` [Compound 1016] ({CH2CO}-[Dap]Y(Carboxymethyl)D[Phe(3-Me)]V[Bip][Cit][Orn][dL][Dab][Cha]VTCAD[AEEA]E[AEEA][Aun]-OH; thioether N-14) is 6 nM.
On to `Cc1cccc(C[C@@H]2NC(=O)[C@H](CC(=O)O)NC(=O)[C@H](Cc3ccc(OCC(=O)O)cc3)NC(=O)[C@H](CN)NC(=O)CSC[C@@H](C(=O)N[C@@H](C)C(=O)N[C@@H](CC(=O)NCCOCCOCC(=O)N[C@@H](CCC(=O)NCCOCCOCC(=O)NCCCCCCCCCCC(=O)O)C(=O)O)C(=O)O)NC(=O)[C@H]([C@@H](C)O)NC(=O)[C@H](C(C)C)NC(=O)[C@H](CC3CCCCC3)NC(=O)[C@H](CCN)NC(=O)[C@@H](CC(C)C)NC(=O)[C@H](CCCN)NC(=O)[C@H](CCCNC(N)=O)NC(=O)[C@H](Cc3ccc(-c4ccccc4)cc3)NC(=O)[C@H](C(C)C)NC2=O)c1` [Compound 1018] ({CH2CO}-[Dap]Y(Carboxymethyl)D[Phe(3-Me)]V[Bip][Cit][Orn][dL][Dab][Cha]VTCA[βAsp][AEEA][γGlu][AEEA][Aun]-OH; thioether N-14), for which the IC50 stood at 8.4 nM.
The figure for `Cc1cccc(C[C@@H]2NC(=O)[C@H](CC(=O)O)NC(=O)[C@H](Cc3ccc(OCC(=O)O)cc3)NC(=O)[C@H](CN)NC(=O)CSC[C@@H](C(=O)N[C@@H](C)C(=O)N[C@@H](CC(=O)NCCOCCOCC(=O)N[C@@H](CC(=O)O)C(=O)NCCOCCOCC(=O)NCCCCCCCCCCC(=O)O)C(=O)O)NC(=O)[C@H]([C@@H](C)O)NC(=O)[C@H](C(C)C)NC(=O)[C@H](CC3CCCCC3)NC(=O)[C@H](CCN)NC(=O)[C@@H](CC(C)C)NC(=O)[C@H](CCCN)NC(=O)[C@H](CCCNC(N)=O)NC(=O)[C@H](Cc3ccc(-c4ccccc4)cc3)NC(=O)[C@H](C(C)C)NC2=O)c1` [Compound 1019] ({CH2CO}-[Dap]Y(Carboxymethyl)D[Phe(3-Me)]V[Bip][Cit][Orn][dL][Dab][Cha]VTCA[βAsp][AEEA]D[AEEA][Aun]-OH; thioether N-14) is 6.8 nM; for `Cc1cccc(C[C@@H]2NC(=O)[C@H](CC(=O)O)NC(=O)[C@H](Cc3ccc(OCC(=O)O)cc3)NC(=O)[C@H](CN)NC(=O)CSC[C@@H](C(=O)N[C@@H](C)C(=O)N[C@@H](CC(=O)NCCOCCOCC(=O)N[C@@H](CCC(=O)O)C(=O)NCCOCCOCC(=O)NCCCCCCCCCCC(=O)O)C(=O)O)NC(=O)[C@H]([C@@H](C)O)NC(=O)[C@H](C(C)C)NC(=O)[C@H](CC3CCCCC3)NC(=O)[C@H](CCN)NC(=O)[C@@H](CC(C)C)NC(=O)[C@H](CCCN)NC(=O)[C@H](CCCNC(N)=O)NC(=O)[C@H](Cc3ccc(-c4ccccc4)cc3)NC(=O)[C@H](C(C)C)NC2=O)c1` [Compound 1020] ({CH2CO}-[Dap]Y(Carboxymethyl)D[Phe(3-Me)]V[Bip][Cit][Orn][dL][Dab][Cha]VTCA[βAsp][AEEA]E[AEEA][Aun]-OH; thioether N-14) it is 8.3 nM; for `Cc1cccc(C[C@@H]2NC(=O)[C@H](CC(=O)O)NC(=O)[C@H](Cc3ccc(OCC(=O)O)cc3)NC(=O)[C@H](CN)NC(=O)CSC[C@@H](C(=O)N[C@@H](C)C(=O)N[C@@H](CC(=O)O)C(=O)NCCOCCOCC(=O)N[C@@H](CC(=O)NCCOCCOCC(=O)NCCCCCCCCCCC(=O)O)C(=O)O)NC(=O)[C@H]([C@@H](C)O)NC(=O)[C@H](C(C)C)NC(=O)[C@H](CC3CCCCC3)NC(=O)[C@H](CCN)NC(=O)[C@@H](CC(C)C)NC(=O)[C@H](CCCN)NC(=O)[C@H](CCCNC(N)=O)NC(=O)[C@H](Cc3ccc(-c4ccccc4)cc3)NC(=O)[C@H](C(C)C)NC2=O)c1` [Compound 1021] ({CH2CO}-[Dap]Y(Carboxymethyl)D[Phe(3-Me)]V[Bip][Cit][Orn][dL][Dab][Cha]VTCAD[AEEA][βAsp][AEEA][Aun]-OH; thioether N-14) it is 8.3 nM.
The value for `Cc1cccc(C[C@@H]2NC(=O)[C@H](CC(=O)O)NC(=O)[C@H](Cc3ccc(OCC(=O)O)cc3)NC(=O)[C@H](CN)NC(=O)CSC[C@@H](C(=O)N[C@@H](C)C(=O)N[C@@H](CCC(=O)O)C(=O)NCCOCCOCC(=O)N[C@@H](CC(=O)NCCOCCOCC(=O)NCCCCCCCCCCC(=O)O)C(=O)O)NC(=O)[C@H]([C@@H](C)O)NC(=O)[C@H](C(C)C)NC(=O)[C@H](CC3CCCCC3)NC(=O)[C@H](CCN)NC(=O)[C@@H](CC(C)C)NC(=O)[C@H](CCCN)NC(=O)[C@H](CCCNC(N)=O)NC(=O)[C@H](Cc3ccc(-c4ccccc4)cc3)NC(=O)[C@H](C(C)C)NC2=O)c1` [Compound 1022] ({CH2CO}-[Dap]Y(Carboxymethyl)D[Phe(3-Me)]V[Bip][Cit][Orn][dL][Dab][Cha]VTCAE[AEEA][βAsp][AEEA][Aun]-OH; thioether N-14) was 5.7 nM.
